{"source": "patent US20260284275A1", "about": "“NANOGEL COMPRISING BIOACTIVE MOLECULES, THERAPEUTIC MOLECULES OR DRUGS TOGETHER WITH AN AMPHIPHILIC MOLECULE” (CM4CURE S.A., priority 2023, published 2026)", "key": {"[1]": {"system": "S. aureus (ATCC BAA-1556, MRSA)", "experiment": "Real-time microcalorimetry (Calscreener) of bacterial growth in TSB", "format": "cell-based", "settings": "for bacterial growth (heat flow): 24 h, 37° C.", "procedure": "S. aureus (ATCC BAA-1556, MRSA) was grown overnight in TSB (tryptic soy broth) medium, before being diluted 1×10^4 fold in fresh TSB. Subsequently […] aliquots of diluted bacteria suspensions were supplemented with 10 μg/mL and 20 μg/mL of respectively triafluocyl (Polpharma) alone or in the mixture with TPGS (MedChemExpress LLC (Europe)) (1:1 w/w). Both Triafluocyl and TPGS were prepared in absolute ethanol as already mentioned in the above examples and were refrigerated as master stocks in absolute ethanol. Triafluocyl, TPGS or ethanol (0.6% final conc.) as a vehicle were added to the bacterial suspensions to obtain the concentrations (10 μg/mL and 20 μg/m) followed by a brief vortexing. Bacterial aliquots were then distributed in the dedicated non-activated inserts of a 48-well plate and grown for 24 h under static conditions at 37° C. using Calscreener technology to measure bacterial growth and metabolic activity in Real-Time as described in https://cordis.europa.eu/project/id/784514.\nIn FIG. 6, the real-time microcalorimetric measurements of bacterial metabolic activity is expressed as the heat flow and represents bacterial growth in TSB medium. Solid line stands for control bacteria with a vehicle (0.6% ethanol); thick dashed line—bacteria treated with 10 μg/mL of triafluocyl; thick dotted line—bacteria treated with 20 μg/mL of triafluocyl; thin dashed line—bacteria treated with both triafluocyl and TPGS (10 μg/mL:10 μg/mL); thin dotted line—bacteria treated with both triafluocyl and TPGS (20 μg/mL:20 μg/mL)."}, "[2]": {"system": "S. aureus (MRSA, ATCC 6538)", "experiment": "Real-time microcalorimetry of bacterial growth in liquid medium", "format": "cell-based", "settings": "Fluometacyl 10 or 20 μg/mL with hydroxypropyl-β-cyclodextrin 42 μg/mL, 24 h", "procedure": "S. aureus (MRSA, ATCC 6538) was grown overnight in TSB (tryptic soy broth) medium, before being diluted 1×10^7 fold in the fresh TSB. Subsequently […] aliquots of diluted bacteria suspensions were supplemented with Fluometacyl® (10 or 20 μg/mL) or mixture of Fluometacyl® (10 or 20 μg/mL) and hydroxypropyl-β-cyclodextrin (42 μg/mL). Subsequently 300 μL of suspensions were placed into the dedicated non-activated inserts of a 48-well plate and allowed for growing for 24 h under static conditions at 37 C using Calscreener.\nCurve A—control bacterial growth for S. aureus MRSA 10^−6; Curve B—Bacteria with Fluometacyl® (10 μg/mL); Curve C—Bacteria with Fluometacyl® (10 μg/mL) and hydroxypropyl-β-cyclodextrin (42 μg/mL); Curve D—Bacteria with Fluometacyl® (20 μg/mL); Curve E—Bacteria with Fluometacyl® (20 μg/mL) and hydroxypropyl-β-cyclodextrin (42 μg/mL)."}}}
{"compound": "CCCSc1nc(N[C@@H]2C[C@H]2c2ccc(F)c(F)c2)c2nnn([C@@H]3C[C@H](OCCO)[C@@H](O)[C@H]3O)c2n1", "note": "[Triafluocyl]", "values": [{"measurement": "bacterial growth (heat flow)", "setting": "[1]; 10 μg/mL", "value": "significantly reduces"}, {"measurement": "bacterial growth (heat flow)", "setting": "[1]; 20 μg/mL", "value": "fully inhibited"}]}
{"compound": "CC(O)COC[C@H]1O[C@@H]2O[C@H]3[C@H](O)[C@@H](O)[C@@H](O[C@H]4[C@H](O)[C@@H](O)[C@@H](O[C@H]5[C@H](O)[C@@H](O)[C@@H](O[C@H]6[C@H](O)[C@@H](O)[C@@H](O[C@H]7[C@H](O)[C@@H](O)[C@@H](O[C@H]8[C@H](O)[C@@H](O)[C@@H](O[C@H]1[C@H](O)[C@H]2O)O[C@@H]8COCC(C)O)O[C@@H]7COCC(C)O)O[C@@H]6COCC(C)O)O[C@@H]5COCC(C)O)O[C@@H]4COCC(C)O)O[C@@H]3COCC(C)O", "note": "(stereo partly drawn) [hydroxypropyl-β-cyclodextrin]", "values": [{"measurement": "effect on the antibacterial activity of Fluometacyl in solution", "setting": "[2]", "value": "didn't impair"}]}
{"compound": "D-α-tocopheryl polyethylene glycol succinate [TPGS]", "values": [{"measurement": "effect of added TPGS on the inhibitory effect of triafluocyl on bacterial growth", "setting": "[1]; TPGS at equivalent amount (1:1 w/w) to triafluocyl, 10 and 20 μg/mL", "value": "significantly reduced the inhibitory effect"}]}
